Where “and” joins values, the source holds several entries; their conditions need not be identical. Equal entries are not always repeated. Inconclusive results and toxic doses are left out.
System: P388 leukemia ip, CD2F1 mice, survival T/C
Assay: NCI In Vivo Anticancer Drug Screen. Data for tumor model P388 Leukemia (intraperitoneal) in CD2F1 (CDF1) mice
Conditions: endpoint: median survival time, higher = longer survival
In short: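 Mice carrying the transplanted tumor received test compound or vehicle. Survival was recorded in each group, and the value is the treated-group measurement divided by that of the vehicle-treated control group.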

[1] = dose: 100.0 mg/kg/injection, schedule: Q01DX001 (ip), vehicle: saline with Tween-80
[2] = dose: 200.0 mg/kg/injection, schedule: Q01DX001 (ip), vehicle: saline with Tween-80

## C=c1[nH]c(=O)c(=C)[nH]c1=O
dose: 12.5 mg/kg/injection, schedule: Q01DX009 (ip), vehicle: other
  T/C: 94 % of control
dose: 25.0 mg/kg/injection, schedule: Q01DX009 (ip), vehicle: other
  T/C: 90 % of control
dose: 50.0 mg/kg/injection, schedule: Q01DX009 (ip), vehicle: other
  T/C: 99 % of control
dose: 100.0 mg/kg/injection, schedule: Q01DX009 (ip), vehicle: other
  T/C: 106 % of control

## Nc1nc2[nH]c(=O)c(=O)[nH]c2c(=O)[nH]1
dose: 50.0 mg/kg/injection, schedule: Q04DX003 (ip), vehicle: Klucel (hydroxypropylcellulose) (HPC)
  T/C: 96 % of control
dose: 100.0 mg/kg/injection, schedule: Q04DX003 (ip), vehicle: Klucel (hydroxypropylcellulose) (HPC)
  T/C: 97 % of control
dose: 200.0 mg/kg/injection, schedule: Q04DX003 (ip), vehicle: Klucel (hydroxypropylcellulose) (HPC)
  T/C: 94 % of control
dose: 400.0 mg/kg/injection, schedule: Q04DX003 (ip), vehicle: Klucel (hydroxypropylcellulose) (HPC)
  T/C: 105 % of control

## CN1c2ccccc2C2=C(C3=C(CS2)C(=O)CCS3)S1(=O)=O
[1]
  T/C: 100 % of control
[2]
  T/C: 99 % of control
dose: 400.0 mg/kg/injection, schedule: Q01DX001 (ip), vehicle: saline with Tween-80
  T/C: 100 % of control

## CC1CC(C)CC(C)C(O)/C(C#N)=C/C=C/CC(C2CCCC2C(=O)O)OC(=O)CC(O)C(C)C1 (stereo unspecified)
dose: 0.5 mg/kg/injection, schedule: Q01DX009 (ip), vehicle: Klucel (hydroxypropylcellulose) (HPC)
  T/C: 163 % of control and 169 % of control
dose: 0.78 mg/kg/injection, schedule: Q01DX009 (ip), vehicle: Klucel (hydroxypropylcellulose) (HPC)
  T/C: 150 % of control
dose: 1.0 mg/kg/injection, schedule: Q01DX009 (ip), vehicle: Klucel (hydroxypropylcellulose) (HPC)
  T/C: 151 % of control and 152 % of control
dose: 1.56 mg/kg/injection, schedule: Q01DX009 (ip), vehicle: Klucel (hydroxypropylcellulose) (HPC)
  T/C: 151 % of control
dose: 3.13 mg/kg/injection, schedule: Q01DX009 (ip), vehicle: Klucel (hydroxypropylcellulose) (HPC)
  T/C: 153 % of control

## C(=N[C@H]1CCCC[C@H]1N=Cc1ccccn1)c1ccccn1
dose: 50.0 mg/kg/injection, schedule: Q01DX005 (ip), vehicle: saline with Tween-80
  T/C: 95 % of control
dose: 100.0 mg/kg/injection, schedule: Q01DX005 (ip), vehicle: saline with Tween-80
  T/C: 90 % of control
dose: 200.0 mg/kg/injection, schedule: Q01DX005 (ip), vehicle: saline with Tween-80
  T/C: 101 % of control

## O=C1/C(=N\O)Cc2cc(Cl)ccc21
dose: 12.0 mg/kg/injection, schedule: Q01DX005 (ip), vehicle: Klucel (hydroxypropylcellulose) (HPC)
  T/C: 101 % of control
dose: 25.0 mg/kg/injection, schedule: Q01DX005 (ip), vehicle: Klucel (hydroxypropylcellulose) (HPC)
  T/C: 111 % of control
dose: 50.0 mg/kg/injection, schedule: Q01DX005 (ip), vehicle: Klucel (hydroxypropylcellulose) (HPC)
  T/C: 101 % of control and 97 % of control

## Nc1ncnc2c1c(-c1ccc(Cl)cc1)cn2-c1ccc(I)cc1
dose: 60.0 mg/kg/injection, schedule: Q01DX005 (ip), vehicle: saline with Tween-80
  T/C: 100 % of control
dose: 120.0 mg/kg/injection, schedule: Q01DX005 (ip), vehicle: saline with Tween-80
  T/C: 102 % of control
dose: 240.0 mg/kg/injection, schedule: Q01DX005 (ip), vehicle: saline with Tween-80
  T/C: 88 % of control

## CCOC(=O)C#Cc1cccc(C#CC(=O)OCC)c1
dose: 50.0 mg/kg/injection, schedule: Q01DX001 (ip), vehicle: saline with Tween-80
  T/C: 98 % of control
[1]
  T/C: 99 % of control and 118 % of control
[2]
  T/C: 120 % of control

## O=C(O)C(Cc1cnc[nH]1)[N-]C[N-]C(Cc1cnc[nH]1)C(=O)O.[Pd+2] (stereo unspecified)
dose: 50.0 mg/kg/injection, schedule: Q01DX005 (ip), vehicle: saline
  T/C: 100 % of control
dose: 100.0 mg/kg/injection, schedule: Q01DX005 (ip), vehicle: saline
  T/C: 97 % of control
dose: 200.0 mg/kg/injection, schedule: Q01DX005 (ip), vehicle: saline
  T/C: 100 % of control

## COCCOCCOCCOCCOC(=O)CCn1cc(F)c(=O)[nH]c1=O
dose: 45.0 mg/kg/injection, schedule: Q04DX002 (ip), vehicle: saline
  T/C: 99 % of control
dose: 90.0 mg/kg/injection, schedule: Q04DX002 (ip), vehicle: saline
  T/C: 106 % of control
dose: 180.0 mg/kg/injection, schedule: Q04DX002 (ip), vehicle: saline
  T/C: 101 % of control
dose: 360.0 mg/kg/injection, schedule: Q04DX002 (ip), vehicle: saline
  T/C: 108 % of control

## CC1(C)CC(C)(OC(=O)c2ccc(F)cc2)[N+]([O-])=N1 (stereo unspecified)
dose: 4.7 mg/kg/injection, schedule: Q01DX009 (ip), vehicle: other
  T/C: 115 % of control
dose: 9.4 mg/kg/injection, schedule: Q01DX009 (ip), vehicle: other
  T/C: 112 % of control
dose: 18.8 mg/kg/injection, schedule: Q01DX009 (ip), vehicle: other
  T/C: 106 % of control
dose: 37.5 mg/kg/injection, schedule: Q01DX009 (ip), vehicle: other
  T/C: 120 % of control
dose: 75.0 mg/kg/injection, schedule: Q01DX009 (ip), vehicle: other
  T/C: 106 % of control
dose: 150.0 mg/kg/injection, schedule: Q01DX009 (ip), vehicle: other
  T/C: 101 % of control
